Results on five molecules are retold here after PMC7092826 (Biochemical Pharmacology, 2008).

Assay [1] has as its target T1, SARS-CoV PLpro (Severe acute respiratory syndrome coronavirus, UniProt P0C6U8). Format: biochemical.
The next assay concerns the target T2, papain (Carica papaya, UniProt P00784).
T2 sequence (P00784 134-345): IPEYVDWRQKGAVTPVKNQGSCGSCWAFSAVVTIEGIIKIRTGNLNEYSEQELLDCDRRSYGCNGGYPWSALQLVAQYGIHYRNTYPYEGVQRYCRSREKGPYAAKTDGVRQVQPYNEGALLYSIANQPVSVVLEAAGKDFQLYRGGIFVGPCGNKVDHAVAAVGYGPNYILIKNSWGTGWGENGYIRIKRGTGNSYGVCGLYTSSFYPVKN
The class given is biochemical.

In assay [2] the target is T1, SARS-CoV PLpro. Briefly: biochemical. Format: biochemical.
For a further assay, the target named is cathepsin B (Homo sapiens, UniProt P07858). The class given is biochemical.
In the next assay the target is cathepsin L (Homo sapiens, UniProt P07711). Format: biochemical.
Sequence of cathepsin L (P07711 114-333, species assumed): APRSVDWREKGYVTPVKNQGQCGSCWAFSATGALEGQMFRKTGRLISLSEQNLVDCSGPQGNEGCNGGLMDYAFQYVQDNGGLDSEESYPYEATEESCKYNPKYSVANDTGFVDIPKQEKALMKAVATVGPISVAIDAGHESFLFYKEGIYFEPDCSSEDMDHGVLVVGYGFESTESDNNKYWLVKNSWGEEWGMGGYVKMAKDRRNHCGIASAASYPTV
The target of the next assay is T3, cathepsin K (Homo sapiens, UniProt P43235).
T3 sequence (P43235 115-329): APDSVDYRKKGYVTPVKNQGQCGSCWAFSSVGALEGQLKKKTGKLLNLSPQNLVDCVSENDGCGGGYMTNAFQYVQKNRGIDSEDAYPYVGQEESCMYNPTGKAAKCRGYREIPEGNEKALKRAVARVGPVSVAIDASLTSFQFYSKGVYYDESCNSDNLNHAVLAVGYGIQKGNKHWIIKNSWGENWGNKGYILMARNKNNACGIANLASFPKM
Format: biochemical.

A further assay addresses cathepsin S (Homo sapiens, UniProt P25774). Format: biochemical.
Assay [3] concerns the target T1, SARS-CoV PLpro. Briefly: biochemical. The class given is biochemical. The conditions noted are these: for remaining activity at 200 µM: read-out: residual activity of PLpro.
Assay [4] concerns the target T1, SARS-CoV PLpro. The assay can be described thus: biochemical. Format: biochemical. The conditions noted are these: for Ki: Kis.
Assay [5] addresses T1, SARS-CoV PLpro. Format: biochemical. The source holds these as a separate data set.
The next assay has as its target SARS-CoV 3CLpro (Severe acute respiratory syndrome coronavirus, UniProt P0C6U8). Briefly: biochemical. The following applies: read-out: residual activity of 3CLpro.

“And” between values parts separate entries of the source, which are not always exact repeats. Equal entries are not always repeated.

Sequence of cathepsin S (P25774 115-331): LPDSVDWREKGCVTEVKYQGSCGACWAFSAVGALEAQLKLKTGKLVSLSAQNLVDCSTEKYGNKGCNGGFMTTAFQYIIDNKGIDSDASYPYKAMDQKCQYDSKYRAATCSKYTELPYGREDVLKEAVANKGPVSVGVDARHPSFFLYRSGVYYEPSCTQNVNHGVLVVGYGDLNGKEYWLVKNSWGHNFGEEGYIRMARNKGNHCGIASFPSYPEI

By IC50 is commonly meant the concentration that gives 50% inhibition. Lower therefore signals inhibition by little substance. As usually defined, the kcat is the maximal rate divided by the concentration of active sites. What is called Ki is a measure of affinity in units of concentration, obtained from inhibition or displacement. High values mean lower affinity, low ones higher affinity. Consider `Sc1ncnc2nc[nH]c12` [compound 1, 6-Mercaptopurine], for which the “enzymatic activity after gel filtration of the inhibited enzyme (reversibility)” value on SARS-CoV PLpro [1] is recorded as “restored”. In addition, on papain, the inhibition of papain entry is “not effective inhibitors”. In addition, the midpoint of inhibition against SARS-CoV PLpro [2], the IC50, lay at 21.6 ± 1.8 µM. In addition, at cathepsin B, the “inhibition of cathepsin B” value is “not effective inhibitors”. The “inhibition of cathepsin L” value against cathepsin L is recorded as “not effective inhibitors”. Moreover, at cathepsin K, the “inhibition of cathepsin K” value is listed as “not effective inhibitors”. Besides, the “inhibition of cathepsin S” value on cathepsin S is “not effective inhibitors”. In addition, on SARS-CoV PLpro [3], the binding mechanism entry is reported as “slow-binding inhibitors”, the kmax was 1.2 ± 0.1 10^−4 s^−1, the kmax of inactivation is listed as 0.12 ms^−1 and the remaining activity at 200 µM is < 5%. In addition, on SARS-CoV PLpro [4], the inhibition pattern entry is recorded as “competitive”; the turnover number (kcat) stood at 0.13 ± 0.01 s⁻¹; the Ki is 19 µM and 19.2 µM. In addition, the “inhibition of the deubiquitinating activity of PLpro” value against SARS-CoV PLpro [5] is reported as “effectively inhibited”.

Regarding `Nc1nc2nc[nH]c2c(=S)[nH]1` [compound 2, 6-Thioguanine], the “enzymatic activity after gel filtration of the inhibited enzyme (reversibility)” value on SARS-CoV PLpro [1] is reported as “restored”. Besides, the inhibition of papain entry at papain was “not effective inhibitors”. On SARS-CoV 3CLpro, the remaining activity at 200 µM was 25%. For the same molecule, 5 ± 1.7 µM corresponded to half-maximal inhibition on SARS-CoV PLpro [2] (IC50). Further, the “inhibition of cathepsin B” value at cathepsin B is “not effective inhibitors”. In addition, at cathepsin L, the “inhibition of cathepsin L” value is reported as “not effective inhibitors”. On cathepsin K, the “inhibition of cathepsin K” value was “not effective inhibitors”. The “inhibition of cathepsin S” value against cathepsin S is given as “not effective inhibitors”. For the same molecule, at SARS-CoV PLpro [3], the binding mechanism result is recorded as “slow-binding inhibitors”, the kmax is listed as 9.2 ± 0.9 10^−4 s^−1, the kmax of inactivation was found to be 0.92 ms^−1 and the remaining activity at 200 µM was < 5%. Besides, on SARS-CoV PLpro [4], the inhibition pattern result is listed as “competitive”, the catalytic constant (kcat) stood at 0.14 ± 0.02 s⁻¹ and the Ki came out at 13 ± 2.8 µM. The “inhibition of the deubiquitinating activity of PLpro” value at SARS-CoV PLpro [5] is given as “effectively inhibited”.

`O=c1[nH]cnc2nc[nH]c12` [compound 3, Hypoxanthine]: the “inhibitory activity against PLpro” value on SARS-CoV PLpro [2] was “devoid of inhibitory activity”.

As for `CSc1ncnc2nc[nH]c12` [compound 4, 6-Methyl-mercaptopurine], the “inhibitory activity against PLpro” value at SARS-CoV PLpro [2] is recorded as “devoid of inhibitory activity”.

On to `CCN1C(=O)C=CC1=O` [compound 6, N-ethylmaleimide], for which the half-maximal inhibitory concentration (IC50) on SARS-CoV PLpro [2] stood at 4.4 ± 1 µM.
